The values below come from patent US20250114345A1, “COMPOUNDS AND COMPOSITIONS AS CBP/P300 DEGRADERS AND USES THEREOF” (Oncopia Therapeutics, Inc. d/b/a/ SK Life Science Labs, priority 2023, published 2025).

In general, DC50 refers to the concentration giving 50% degradation. A high value points to a less potent degrader. By Dmax is commonly meant the largest share of the target that was removed.

The target of one experiment is T1, CBP (Homo sapiens, UniProt Q92793).
T1 construct: host or cells: A549 CBP HiBit cells
Nature of the experiment: CBP degradation, HiBit technology in A549 CBP HiBit cells (24 h). The format is cell-based. Particulars: 24 hrs post treatment. Summed up: (§1)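 Degradation potency and Dmax came from HiBiT luminescence in tagged A549 cells treated with serially diluted compound (DMSO stocks at 10 mM) after overnight equilibration in F-12K with 10% heat-inactivated FBS.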
Background: The HiBiT peptide binds its large partner to form an active luciferase.

Another experiment concerns the target T2, p300 (Homo sapiens, UniProt Q09472).
T2 construct: host or cells: A549 P300 HiBit cells
The experiment can be described thus: P300 degradation, HiBit technology in A549 P300 HiBit cells (2 h). Particulars: 2 hrs post treatment; for Dmax: A549, A549 P300 HiBit cells; for DC50: A549 P300 HiBit cells. The experiment is classed as cell-based. Summed up:
as §1

T2 sequence (Q09472 whole entry): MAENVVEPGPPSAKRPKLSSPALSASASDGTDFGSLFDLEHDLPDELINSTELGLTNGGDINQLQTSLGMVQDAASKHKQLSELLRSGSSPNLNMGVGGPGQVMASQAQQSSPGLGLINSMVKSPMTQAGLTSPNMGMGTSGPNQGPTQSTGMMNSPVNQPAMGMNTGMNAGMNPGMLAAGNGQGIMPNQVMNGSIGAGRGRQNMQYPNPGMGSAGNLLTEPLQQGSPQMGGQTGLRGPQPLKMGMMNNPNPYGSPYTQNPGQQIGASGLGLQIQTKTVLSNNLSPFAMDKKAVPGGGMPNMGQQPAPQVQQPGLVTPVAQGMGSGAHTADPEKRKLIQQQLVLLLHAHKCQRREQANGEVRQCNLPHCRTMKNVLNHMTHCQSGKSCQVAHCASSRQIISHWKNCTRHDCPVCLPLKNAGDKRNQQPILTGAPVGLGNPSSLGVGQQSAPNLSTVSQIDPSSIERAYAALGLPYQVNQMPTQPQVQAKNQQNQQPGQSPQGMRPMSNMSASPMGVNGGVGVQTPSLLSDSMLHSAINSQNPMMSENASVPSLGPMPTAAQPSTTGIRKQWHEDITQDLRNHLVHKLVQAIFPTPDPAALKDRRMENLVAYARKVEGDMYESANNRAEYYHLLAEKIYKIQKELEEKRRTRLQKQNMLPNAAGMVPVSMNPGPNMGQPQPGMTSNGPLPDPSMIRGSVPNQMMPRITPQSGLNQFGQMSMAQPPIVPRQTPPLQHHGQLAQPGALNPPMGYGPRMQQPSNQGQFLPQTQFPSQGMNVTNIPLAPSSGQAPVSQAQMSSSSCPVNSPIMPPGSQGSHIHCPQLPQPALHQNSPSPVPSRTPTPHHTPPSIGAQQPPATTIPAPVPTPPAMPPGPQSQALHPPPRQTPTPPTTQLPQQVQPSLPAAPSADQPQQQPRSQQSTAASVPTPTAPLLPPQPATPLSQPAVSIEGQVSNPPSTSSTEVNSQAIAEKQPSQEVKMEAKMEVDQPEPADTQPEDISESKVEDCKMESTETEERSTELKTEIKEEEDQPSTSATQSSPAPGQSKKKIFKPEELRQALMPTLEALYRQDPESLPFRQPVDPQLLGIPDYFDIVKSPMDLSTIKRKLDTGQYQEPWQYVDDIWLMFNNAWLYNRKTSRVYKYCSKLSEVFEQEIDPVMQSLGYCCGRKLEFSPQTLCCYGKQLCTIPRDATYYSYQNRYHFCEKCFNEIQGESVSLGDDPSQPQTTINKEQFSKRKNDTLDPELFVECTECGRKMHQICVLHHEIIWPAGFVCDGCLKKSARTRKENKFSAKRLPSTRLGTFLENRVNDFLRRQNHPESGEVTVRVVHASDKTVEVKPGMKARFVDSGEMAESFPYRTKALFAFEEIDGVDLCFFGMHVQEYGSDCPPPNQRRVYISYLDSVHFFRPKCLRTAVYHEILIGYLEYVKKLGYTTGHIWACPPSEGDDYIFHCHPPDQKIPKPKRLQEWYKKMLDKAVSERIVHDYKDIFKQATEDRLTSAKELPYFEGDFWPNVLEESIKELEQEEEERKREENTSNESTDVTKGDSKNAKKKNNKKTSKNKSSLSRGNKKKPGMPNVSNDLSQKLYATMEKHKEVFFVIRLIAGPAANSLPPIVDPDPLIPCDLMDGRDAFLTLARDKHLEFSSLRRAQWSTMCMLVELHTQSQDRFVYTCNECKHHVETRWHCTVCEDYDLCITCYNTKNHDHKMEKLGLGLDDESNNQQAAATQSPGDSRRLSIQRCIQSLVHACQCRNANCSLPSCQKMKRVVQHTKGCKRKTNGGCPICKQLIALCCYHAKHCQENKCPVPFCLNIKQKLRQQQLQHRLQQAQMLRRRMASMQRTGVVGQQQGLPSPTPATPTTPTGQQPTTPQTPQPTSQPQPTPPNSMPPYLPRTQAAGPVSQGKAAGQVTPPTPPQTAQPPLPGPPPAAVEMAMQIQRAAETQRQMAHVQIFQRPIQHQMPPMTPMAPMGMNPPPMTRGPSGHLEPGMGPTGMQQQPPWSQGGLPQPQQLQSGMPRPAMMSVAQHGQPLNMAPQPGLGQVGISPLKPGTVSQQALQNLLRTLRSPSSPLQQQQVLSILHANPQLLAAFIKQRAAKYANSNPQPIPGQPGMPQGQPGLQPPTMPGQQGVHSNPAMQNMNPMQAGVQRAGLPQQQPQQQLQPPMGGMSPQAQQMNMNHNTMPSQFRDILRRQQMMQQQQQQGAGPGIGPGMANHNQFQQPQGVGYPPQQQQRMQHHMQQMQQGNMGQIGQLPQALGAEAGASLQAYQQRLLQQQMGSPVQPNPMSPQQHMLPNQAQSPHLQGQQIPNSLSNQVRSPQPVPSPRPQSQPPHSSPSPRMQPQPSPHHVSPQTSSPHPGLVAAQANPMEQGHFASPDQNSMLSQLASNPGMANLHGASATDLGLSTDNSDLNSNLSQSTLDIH
T1 sequence (Q92793 whole entry): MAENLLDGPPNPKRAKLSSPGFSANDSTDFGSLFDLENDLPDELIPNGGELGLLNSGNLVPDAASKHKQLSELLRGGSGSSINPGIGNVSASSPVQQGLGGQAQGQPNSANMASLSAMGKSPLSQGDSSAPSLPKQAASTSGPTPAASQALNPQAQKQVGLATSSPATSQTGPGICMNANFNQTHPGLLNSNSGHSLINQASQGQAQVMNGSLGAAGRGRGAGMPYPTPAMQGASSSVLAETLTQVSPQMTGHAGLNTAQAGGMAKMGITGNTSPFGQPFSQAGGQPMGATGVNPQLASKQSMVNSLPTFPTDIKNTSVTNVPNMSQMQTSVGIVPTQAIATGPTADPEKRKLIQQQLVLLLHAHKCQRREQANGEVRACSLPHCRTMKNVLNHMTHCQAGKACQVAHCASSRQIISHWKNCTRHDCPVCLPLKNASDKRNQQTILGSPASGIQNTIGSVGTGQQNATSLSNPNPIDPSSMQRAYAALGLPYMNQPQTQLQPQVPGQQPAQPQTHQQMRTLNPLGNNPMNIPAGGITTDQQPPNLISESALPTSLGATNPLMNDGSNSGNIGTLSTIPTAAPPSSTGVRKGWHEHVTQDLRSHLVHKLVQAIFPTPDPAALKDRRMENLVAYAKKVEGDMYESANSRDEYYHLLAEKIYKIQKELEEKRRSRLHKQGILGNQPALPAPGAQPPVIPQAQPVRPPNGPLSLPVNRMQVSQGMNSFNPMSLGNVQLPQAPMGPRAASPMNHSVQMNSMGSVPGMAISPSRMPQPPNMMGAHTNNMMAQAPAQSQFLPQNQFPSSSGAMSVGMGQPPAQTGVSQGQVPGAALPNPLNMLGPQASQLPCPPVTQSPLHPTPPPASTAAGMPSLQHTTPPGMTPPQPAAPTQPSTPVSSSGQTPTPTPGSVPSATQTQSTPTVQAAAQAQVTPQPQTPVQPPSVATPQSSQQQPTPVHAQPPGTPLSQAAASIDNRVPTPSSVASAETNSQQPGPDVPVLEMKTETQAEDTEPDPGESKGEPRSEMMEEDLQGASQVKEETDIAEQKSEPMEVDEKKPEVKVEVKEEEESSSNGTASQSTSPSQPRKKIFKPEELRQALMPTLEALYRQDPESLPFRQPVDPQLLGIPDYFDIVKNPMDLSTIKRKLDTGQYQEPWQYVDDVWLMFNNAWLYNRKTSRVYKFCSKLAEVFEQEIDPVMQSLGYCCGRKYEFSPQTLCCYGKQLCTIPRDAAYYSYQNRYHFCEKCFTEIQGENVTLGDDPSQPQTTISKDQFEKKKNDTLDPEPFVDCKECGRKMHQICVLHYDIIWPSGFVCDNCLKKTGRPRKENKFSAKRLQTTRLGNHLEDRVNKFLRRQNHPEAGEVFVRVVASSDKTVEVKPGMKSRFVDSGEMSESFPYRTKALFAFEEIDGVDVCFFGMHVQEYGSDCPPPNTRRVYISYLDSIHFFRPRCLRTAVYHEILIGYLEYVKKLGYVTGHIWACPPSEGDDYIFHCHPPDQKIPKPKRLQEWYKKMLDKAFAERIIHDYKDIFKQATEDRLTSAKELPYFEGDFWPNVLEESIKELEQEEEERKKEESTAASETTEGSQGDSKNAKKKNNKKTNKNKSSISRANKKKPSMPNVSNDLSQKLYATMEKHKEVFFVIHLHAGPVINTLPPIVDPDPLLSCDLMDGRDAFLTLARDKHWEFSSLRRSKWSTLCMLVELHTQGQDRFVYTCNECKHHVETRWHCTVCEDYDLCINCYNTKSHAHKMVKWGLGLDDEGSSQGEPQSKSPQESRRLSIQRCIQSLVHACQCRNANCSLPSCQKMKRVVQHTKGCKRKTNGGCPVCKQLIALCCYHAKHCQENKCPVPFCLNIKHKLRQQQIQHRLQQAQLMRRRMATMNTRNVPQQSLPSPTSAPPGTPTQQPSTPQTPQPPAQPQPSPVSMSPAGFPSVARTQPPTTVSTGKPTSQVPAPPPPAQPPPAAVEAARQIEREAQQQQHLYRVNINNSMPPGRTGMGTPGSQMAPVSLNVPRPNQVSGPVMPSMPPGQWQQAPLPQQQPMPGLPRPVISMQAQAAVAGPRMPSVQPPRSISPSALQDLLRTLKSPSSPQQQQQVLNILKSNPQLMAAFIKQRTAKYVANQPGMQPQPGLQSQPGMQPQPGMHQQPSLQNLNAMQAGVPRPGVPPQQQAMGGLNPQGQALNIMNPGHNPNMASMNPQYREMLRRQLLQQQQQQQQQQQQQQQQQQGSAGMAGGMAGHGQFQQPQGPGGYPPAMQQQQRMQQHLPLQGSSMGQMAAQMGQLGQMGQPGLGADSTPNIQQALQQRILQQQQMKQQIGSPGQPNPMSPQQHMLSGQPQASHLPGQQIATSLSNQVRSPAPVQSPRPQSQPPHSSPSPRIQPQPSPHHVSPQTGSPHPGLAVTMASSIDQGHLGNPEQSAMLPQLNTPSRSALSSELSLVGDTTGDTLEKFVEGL

For `CCc1cc(-c2cccc3cc(-c4ccc(C(=O)NCC#Cc5cccc(CC6CCC(=O)NC6=O)c5)nc4)ncc23)c2cc(C)c(=O)n(C)c2c1` (stereo not shown) [Example B4, N-(3-(3-((2,6-Dioxopiperidin-3-yl)methyl)phenyl)prop-2-yn-1-yl)-5-(8-(7-ethyl-1,3-dimethyl-2-oxo-1,2-dihydroquinolin-5-yl)isoquinolin-3-yl)picolinamide], the DC50 at CBP lay in the range of 100 to 999 nM; at p300, 10 to 99 nM. The Dmax at CBP lay within 40 to 59%; at p300 it was 60 to 79%.
At CBP, `CCc1cc(-c2cccc3cc(-c4ccc(C(=O)NCC#Cc5ccc6cnn(C7CCC(=O)NC7=O)c6c5)nc4)ncc23)c2cc(C)c(=O)n(C)c2c1` (stereo not shown) [Example B5, N-(3-(1-(2,6-Dioxopiperidin-3-yl)-1H-indazol-6-yl)prop-2-yn-1-yl)-5-(8-(7-ethyl-1,3-dimethyl-2-oxo-1,2-dihydroquinolin-5-yl)isoquinolin-3-yl)picolinamide] displayed a DC50 of more than 1000 nM and a Dmax of less than 20%. At p300, this molecule came in with a Dmax of more than 80% and a DC50 of 1 to 9.9 nM.
Taken in the same sequence, the figures for `CCc1cc(-c2cccc3cc(-c4ccc(C(=O)NCC#Cc5cc(NC6CCC(=O)NC6=O)nn5C)nc4)ncc23)c2cc(C)c(=O)n(C)c2c1` (stereo not shown) [Example B7, N-(3-(3-((2,6-Dioxopiperidin-3-yl)amino)-1-methyl-1H-pyrazol-5-yl)prop-2-yn-1-yl)-5-(8-(7-ethyl-1,3-dimethyl-2-oxo-1,2-dihydroquinolin-5-yl)isoquinolin-3-yl)picolinamide] were more than 1000 nM, less than 20%, 20 to 39% and 1 to 9.9 nM.
The matching figures for `CCc1cc(-c2cccc3cc(-c4ccc(C(=O)NCC#Cc5ccc6c(c5)n(C5CCC(=O)NC5=O)c(=O)n6C)nc4)ncc23)c2cc(C)c(=O)n(C)c2c1` (stereo not shown) [Example B8, N-(3-(3-(2,6-Dioxopiperidin-3-yl)-1-methyl-2-oxo-2,3-dihydro-1H-benzo[d]imidazol-5-yl)prop-2-yn-1-yl)-5-(8-(7-ethyl-1,3-dimethyl-2-oxo-1,2-dihydroquinolin-5-yl)isoquinolin-3-yl)picolinamide]: 10 to 99 nM, 40 to 59%, more than 80% and 1 to 9.9 nM.
The matching figures for `CN1Cc2c(-c3cccc4cc(-c5ccc(C(=O)NCC#Cc6ccc7cnn(C8CCC(=O)NC8=O)c7c6)nc5)ncc34)cc(C(C)(F)F)cc2N(C)C1=O` (stereo not shown) [Example B9, 5-(8-(7-(1,1-Difluoroethyl)-1,3-dimethyl-2-oxo-1,2,3,4-tetrahydroquinazolin-5-yl)isoquinolin-3-yl)-N-(3-(1-(2,6-dioxopiperidin-3-yl)-1H-indazol-6-yl)prop-2-yn-1-yl)picolinamide]: 10 to 99 nM, 40 to 59%, more than 80% and 1 to 9.9 nM.
For `CCc1cc(N(C)c2ccc(-c3cnc(C(=O)NCC#Cc4cccc(NC5CCC(=O)NC5=O)c4)c(C)c3)nc2)c2cc(C)c(=O)n(C)c2c1` (stereo not shown) [Example B16, N-(3-(3-((2,6-Dioxopiperidin-3-yl)amino)phenyl)prop-2-yn-1-yl)-5-((7-ethyl-1,3-dimethyl-2-oxo-1,2-dihydroquinolin-5-yl)(methyl)amino)-5′-methyl-[2,3′-bipyridine]-6′-carboxamide], on CBP, the DC50 was in the range of 100 to 999 nM and the Dmax was in the range of 20 to 39%. In addition, at p300, the Dmax is more than 80% and the DC50 fell in the range of 1 to 9.9 nM.
Taken in the same sequence, the figures for `COc1nc(-c2cnc(C(=O)NCC#Cc3cc4c(C5CCC(=O)NC5=O)cccc4o3)c(C)c2)ncc1Nc1cc(C2CCOCC2)cc2c1cc(C)c(=O)n2C` (stereo not shown) [Example B20, 5-(5-((1,3-dimethyl-2-oxo-7-(tetrahydro-2H-pyran-4-yl)-1,2-dihydroquinolin-5-yl)amino)-4-methoxypyrimidin-2-yl)-N-(3-(4-(2,6-dioxopiperidin-3-yl)benzofuran-2-yl)prop-2-yn-1-yl)-3-methylpicolinamide] were more than 1000 nM, less than 20%, more than 80% and 1 to 9.9 nM.
Taken in the same sequence, the figures for `[2H]C1COCCC1([2H])c1cc(N2CCCc3nc(-c4ccc(C(=O)NCC#Cc5cc6c(C7CCC(=O)NC7=O)cccc6o5)nc4)ncc32)c2cc(C)c(=O)n(C)c2c1` (stereo not shown) [Example B23, 5-(5-(1,3-dimethyl-2-oxo-7-(tetrahydro-2H-pyran-4-yl-3,4-d2)-1,2-dihydroquinolin-5-yl)-5,6,7,8-tetrahydropyrido[3,2-d]pyrimidin-2-yl)-N-(3-(4-(2,6-dioxopiperidin-3-yl)benzofuran-2-yl)prop-2-yn-1-yl)picolinamide] were 100 to 999 nM, less than 20%, more than 80% and 1 to 9.9 nM.
The matching figures for `COc1cc(-c2ncc3c(n2)CCCN3c2cc(C3CCOCC3)cc3c2cc(C)c(=O)n3C)cnc1C(=O)NCC#Cc1ccc2occ(C3CCC(=O)NC3=O)c2c1` (stereo not shown) [Example B24, 5-(5-(1,3-dimethyl-2-oxo-7-(tetrahydro-2H-pyran-4-yl)-1,2-dihydroquinolin-5-yl)-5,6,7,8-tetrahydropyrido[3,2-d]pyrimidin-2-yl)-N-(3-(3-(2,6-dioxopiperidin-3-yl)benzofuran-5-yl)prop-2-yn-1-yl)-3-methoxypicolinamide]: more than 1000 nM, less than 20%, more than 80% and 1 to 9.9 nM.
On CBP, `CCN(CC)c1cc2c(cc(C)c(=O)n2C)c(N2CCCc3nc(-c4ccc(C(=O)NCC#Cc5cc6c(C7CCC(=O)NC7=O)nccc6o5)nc4)ncc32)n1` (stereo not shown) [Example B25, 5-(5-(7-(diethylamino)-1,3-dimethyl-2-oxo-1,2-dihydro-1,6-naphthyridin-5-yl)-5,6,7,8-tetrahydropyrido[3,2-d]pyrimidin-2-yl)-N-(3-(4-(2,6-dioxopiperidin-3-yl)furo[3,2-c]pyridin-2-yl)prop-2-yn-1-yl)picolinamide] registered a DC50 of 10 to 99 nM and a Dmax of 20 to 39%. At p300, this molecule returned a Dmax of more than 80% and a DC50 of 1 to 9.9 nM.
Taken in the same sequence, the figures for `Cc1cc(-c2ncc3c(n2)CCCN3c2nc(N3CC4CCC(C3)O4)cc3c2cc(C)c(=O)n3C)cnc1C(=O)NCC#Cc1ccc2occ(C3CCC(=O)NC3=O)c2c1` (stereo not shown) [Example B26, 5-(5-(7-(8-oxa-3-azabicyclo[3.2.1]octan-3-yl)-1,3-dimethyl-2-oxo-1,2-dihydro-1,6-naphthyridin-5-yl)-5,6,7,8-tetrahydropyrido [3,2-d]pyrimidin-2-yl)-N-(3-(3-(2,6-dioxopiperidin-3-yl)benzofuran-5-yl)prop-2-yn-1-yl)-3-methylpicolinamide] were more than 1000 nM, less than 20%, more than 80% and 1 to 9.9 nM.
The matching figures for `Cc1cc2c(N3CCCc4nc(-c5ccc(C(=O)NCC#Cc6cc7c(C8CCC(=O)NC8=O)cccc7o6)nc5)ncc43)nc(N3CCOCC3)cc2n(C)c1=O` (stereo not shown) [Example B28, 5-(5-(1,3-dimethyl-7-morpholino-2-oxo-1,2-dihydro-1,6-naphthyridin-5-yl)-5,6,7,8-tetrahydropyrido[3,2-d]pyrimidin-2-yl)-N-(3-(4-(2,6-dioxopiperidin-3-yl)benzofuran-2-yl)prop-2-yn-1-yl)picolinamide]: 100 to 999 nM, less than 20%, more than 80% and 1 to 9.9 nM.
The matching figures for `Cc1cc2c(N3CCCc4nc(-c5ccc(C(=O)NCC#Cc6cc7c([C@H]8CCC(=O)NC8=O)cccc7o6)nc5)ncc43)nc(N3CCOCC3)cc2n(C)c1=O` [Example B29, (R)-5-(5-(1,3-dimethyl-7-morpholino-2-oxo-1,2-dihydro-1,6-naphthyridin-5-yl)-5,6,7,8-tetrahydropyrido[3,2-d]pyrimidin-2-yl)-N-(3-(4-(2,6-dioxopiperidin-3-yl)benzofuran-2-yl)prop-2-yn-1-yl)picolinamide]: 100 to 999 nM, less than 20%, more than 80% and less than 1 nM.
On CBP, `Cc1cc2c(N3CCN(C)c4nc(-c5ccc(C(=O)NCC#Cc6cc7c(C8CCC(=O)NC8=O)nccc7o6)nc5)ncc43)cccc2n(C)c1=O` (stereo not shown) [Example B32, 5-(5-(1,3-dimethyl-2-oxo-1,2-dihydroquinolin-5-yl)-8-methyl-5,6,7,8-tetrahydropteridin-2-yl)-N-(3-(4-(2,6-dioxopiperidin-3-yl)furo[3,2-c]pyridin-2-yl)prop-2-yn-1-yl)picolinamide] showed a DC50 of 1 to 9.9 nM and a Dmax of 60 to 79%. On p300, this molecule showed a Dmax of more than 80% and a DC50 of less than 1 nM.
The matching figures for `Cc1cc2c(N3CCCc4nc(-c5ccc(C(=O)NCC#Cc6cc7c(C8CCC(=O)NC8=O)nccc7o6)nc5)ncc43)nc(N3CCC3)cc2n(C)c1=O` (stereo not shown) [Example B35, 5-(5-(7-(azetidin-1-yl)-1,3-dimethyl-2-oxo-1,2-dihydro-1,6-naphthyridin-5-yl)-5,6,7,8-tetrahydropyrido[3,2-d]pyrimidin-2-yl)-N-(3-(4-(2,6-dioxopiperidin-3-yl)furo[3,2-c]pyridin-2-yl)prop-2-yn-1-yl)picolinamide]: 10 to 99 nM, 20 to 39%, more than 80% and 1 to 9.9 nM.
Taken in the same sequence, the figures for `Cc1cc2c(N3CCCc4nc(-c5ccc(C(=O)NCC#Cc6cc7c([C@H]8CCC(=O)NC8=O)cccc7o6)nc5)ncc43)cc(C3CCOCC3)cc2n(C)c1=O` [Example B38, (R)-5-(5-(1,3-dimethyl-2-oxo-7-(tetrahydro-2H-pyran-4-yl)-1,2-dihydroquinolin-5-yl)-5,6,7,8-tetrahydropyrido[3,2-d]pyrimidin-2-yl)-N-(3-(4-(2,6-dioxopiperidin-3-yl)benzofuran-2-yl)prop-2-yn-1-yl)picolinamide] were more than 1000 nM, less than 20%, more than 80% and less than 1 nM.
